PubChem BioAssay (NCI)
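Results reflect a 48-hour exposure of cells in 96-well plates to compound at five concentrations. The concentration for full growth arrest is given as TGI.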

How the values were obtained:
Test in all cases: growth of human tumour cells (NCI), 48 h
786-0 renal = system: 786-0 renal
A498 renal = system: A498 renal
A549 NSCLC = system: A549 NSCLC
ACHN renal = system: ACHN renal
BT-549 breast = system: BT-549 breast
CAKI-1 renal = system: CAKI-1 renal
CCRF-CEM leukemia = system: CCRF-CEM leukemia
COLO 205 colon = system: COLO 205 colon
DU-145 prostate = system: DU-145 prostate
EKVX NSCLC = system: EKVX NSCLC
HCC-2998 colon = system: HCC-2998 colon
HCT-116 colon = system: HCT-116 colon
HCT-15 colon = system: HCT-15 colon
HOP-62 NSCLC = system: HOP-62 NSCLC
HOP-92 NSCLC = system: HOP-92 NSCLC
HS 578T breast = system: HS 578T breast
HT29 colon = system: HT29 colon
IGROV1 ovarian = system: IGROV1 ovarian
K-562 leukemia = system: K-562 leukemia
KM12 colon = system: KM12 colon
LOX IMVI melanoma = system: LOX IMVI melanoma
M14 melanoma = system: M14 melanoma
MCF7 breast = system: MCF7 breast
MDA-MB-231 breast = system: MDA-MB-231 breast
MDA-MB-435 = system: MDA-MB-435
MDA-N = system: MDA-N
MOLT-4 leukemia = system: MOLT-4 leukemia
NCI-H226 lung = system: NCI-H226 lung
NCI-H23 lung = system: NCI-H23 lung
NCI-H460 lung = system: NCI-H460 lung
NCI-H522 lung = system: NCI-H522 lung
NCI/ADR-RES ovarian = system: NCI/ADR-RES ovarian
OVCAR-3 ovarian = system: OVCAR-3 ovarian
OVCAR-4 ovarian = system: OVCAR-4 ovarian
OVCAR-5 ovarian = system: OVCAR-5 ovarian
OVCAR-8 ovarian = system: OVCAR-8 ovarian
PC-3 prostate = system: PC-3 prostate
RXF 393 renal = system: RXF 393 renal
SF-268 CNS = system: SF-268 CNS
SF-295 CNS = system: SF-295 CNS
SF-539 CNS = system: SF-539 CNS
SK-MEL-2 melanoma = system: SK-MEL-2 melanoma
SK-MEL-28 melanoma = system: SK-MEL-28 melanoma
SK-MEL-5 melanoma = system: SK-MEL-5 melanoma
SK-OV-3 ovarian = system: SK-OV-3 ovarian
SN12C renal = system: SN12C renal
SNB-75 CNS = system: SNB-75 CNS
SR leukemia = system: SR leukemia
SW-620 colon = system: SW-620 colon
T-47D breast = system: T-47D breast
TK-10 renal = system: TK-10 renal
U251 CNS = system: U251 CNS
UACC-257 melanoma = system: UACC-257 melanoma
UACC-62 melanoma = system: UACC-62 melanoma
UO-31 renal = system: UO-31 renal
HL-60(TB) leukemia = system: HL-60(TB) leukemia
MALME-3M melanoma = system: MALME-3M melanoma
SNB-19 CNS = system: SNB-19 CNS

Measured: TGI

Cc1c(C(=O)O)n2c(C)nnc2c2ccccc12
> 100 µM: 786-0 renal | A498 renal | A549 NSCLC | ACHN renal | BT-549 breast | CAKI-1 renal | CCRF-CEM leukemia | COLO 205 colon | DU-145 prostate | EKVX NSCLC | HCC-2998 colon | HCT-116 colon | HCT-15 colon | HOP-62 NSCLC | HOP-92 NSCLC | HS 578T breast | HT29 colon | IGROV1 ovarian | K-562 leukemia | KM12 colon | LOX IMVI melanoma | M14 melanoma | MCF7 breast | MDA-MB-231 breast | MDA-MB-435 | MDA-N | MOLT-4 leukemia | NCI-H226 lung | NCI-H23 lung | NCI-H460 lung | NCI-H522 lung | NCI/ADR-RES ovarian | OVCAR-3 ovarian | OVCAR-4 ovarian | OVCAR-5 ovarian | OVCAR-8 ovarian | PC-3 prostate | RXF 393 renal | SF-268 CNS | SF-295 CNS | SF-539 CNS | SK-MEL-2 melanoma | SK-MEL-28 melanoma | SK-MEL-5 melanoma | SK-OV-3 ovarian | SN12C renal | SNB-75 CNS | SR leukemia | SW-620 colon | T-47D breast | TK-10 renal | U251 CNS | UACC-257 melanoma | UACC-62 melanoma | UO-31 renal

C[N+](C)(CCNc1ccc(NCC[N+](C)(C)Cc2ccc([N+](=O)[O-])cc2)c2c1C(=O)c1ccccc1C2=O)Cc1ccc([N+](=O)[O-])cc1
> 100 µM: 786-0 renal | A498 renal | A549 NSCLC | ACHN renal | BT-549 breast | CAKI-1 renal | CCRF-CEM leukemia | COLO 205 colon | DU-145 prostate | EKVX NSCLC | HCC-2998 colon | HCT-116 colon | HCT-15 colon | HL-60(TB) leukemia | HOP-62 NSCLC | HOP-92 NSCLC | HS 578T breast | HT29 colon | IGROV1 ovarian | K-562 leukemia | KM12 colon | LOX IMVI melanoma | M14 melanoma | MALME-3M melanoma | MCF7 breast | MDA-MB-231 breast | MDA-MB-435 | MDA-N | MOLT-4 leukemia | NCI-H226 lung | NCI-H23 lung | NCI-H460 lung | NCI-H522 lung | NCI/ADR-RES ovarian | OVCAR-3 ovarian | OVCAR-4 ovarian | OVCAR-5 ovarian | OVCAR-8 ovarian | PC-3 prostate | SF-268 CNS | SF-295 CNS | SF-539 CNS | SK-MEL-2 melanoma | SK-MEL-5 melanoma | SK-OV-3 ovarian | SN12C renal | SNB-19 CNS | SNB-75 CNS | SR leukemia | SW-620 colon | T-47D breast | TK-10 renal | U251 CNS | UACC-257 melanoma | UACC-62 melanoma | UO-31 renal
